Laboratory results from US20130131116A1, “PEST CONTROL COMPOSITION” (SUMITOMO CHEMICAL COMPANY, LIMITED, priority 2010, published 2013).

Tested on: Haemaphysalis longicornis
Assay: Test Example 3: Insecticidal Test on Haemaphysalis longicornis By Treating Glass Surface
Assay type: in vivo
Conditions: Haemaphysalis longicornis, 48 h, read-out: Mortality Rate (%)
Procedure: Acetone solutions were each prepared for the present hydrazide compounds and the present ester compounds. To inner walls of a glass screw tube and lid (NO. 5, manufactured by Maruemu Corporation), 0.2 mL of the acetone solution was uniformly applied. […] The lid is closed tightly, and the number of dead ticks is examined after 2 days.

Row | Compound | mortality at 0.8 mg/m2 | mortality at 0.0064 mg/m2 | mortality at 0.032 mg/m2 | mortality at 0.16 mg/m2
1 | CC(C)=CC1(C=C(Cl)Cl)C(C(=O)OCc2cccc(Oc3ccccc3)c2)C1(C)C (stereo not drawn) [Present ester compound (2), 3-phenoxybenzyl 3-(2,2-dichlorovinyl)-2,2-dimethyl-3-(2-methylprop-1-enyl)cyclopropanecarboxylate, reference compound] | 13% |  |  | 
2 | CN(NC(=O)CCC(F)(F)F)c1cc(C2=NOC(c3cc(Cl)cc(Cl)c3)(C(F)(F)F)C2)ccc1Cl (stereo not drawn) [Present hydrazide compound (31), N′-methyl-N′-{2-chloro-5-[5-(3,5-dichlorophenyl)-5-trifluoromethyl-4,5-dihydroisoxazol-3-yl]phenyl}-4,4,4-trifluorobutyrohydrazide] |  | 3.3% |  | 
3 | O=C(CCC(F)(F)F)NNc1cc(C2=NOC(c3cc(Cl)cc(Cl)c3)(C(F)(F)F)C2)ccc1Cl (stereo not drawn) [Present hydrazide compound (17), N′-{5-[5-(3,5-dichlorophenyl)-5-trifluoromethyl-4,5-dihydroisoxazol-3-yl]-2-chlorophenyl}-4,4,4-trifluorobutyrohydrazide] |  |  | 3.3% | 40%

Same assay, conditions: ester compound alone 0.8 mg/m^2, glass surface, after 2 days

Row | Compound | Mortality Rate (%)
4 | CC(C)=C[C@@H]1[C@@H](C(=O)O[C@H](C#N)c2cccc(Oc3ccccc3)c2)C1(C)C (relative stereo) [Present ester compound (3), (1S)-α-cyano-3-phenoxybenzyl (1R)-trans-2,2-dimethyl-3-(2-methylprop-1-enyl)cyclopropanecarboxylate, reference compound] | 10%

Same assay, conditions: ester compound alone 4 mg/m^2, glass surface, after 2 days

Row | Compound | Mortality Rate (%)
5 | 3-phenoxybenzyl (1R)-cis/trans-2,2-dimethyl-3-(2-methylprop-1-enyl)cyclopropanecarboxylate [Present ester compound (1), reference compound] | 15%

Tested on: not given
Assay: not given
Conditions: not given

Row | Compound | melting point
6 | CCCC(=O)NNc1cc(C2=NOC(c3cc(Cl)cc(Cl)c3)(C(F)(F)F)C2)ccc1Cl (stereo not drawn) | 82 °C
7 | O=C(CCC(F)(F)F)NN(C(=O)c1ccccc1)c1cc(C2=NOC(c3cc(Cl)cc(Cl)c3)(C(F)(F)F)C2)ccc1Cl (stereo not drawn) | 157 °C
8 | CC(=O)N(NC(=O)C1CC1)c1cc(C2=NOC(c3cc(Cl)cc(Cl)c3)(C(F)(F)F)C2)ccc1Cl (stereo not drawn) | 160 °C
9 | CC(=O)NN(C(C)=O)c1cc(C2=NOC(c3cc(Cl)cc(Cl)c3)(C(F)(F)F)C2)ccc1Cl (stereo not drawn) | 108 °C
10 | COc1ccc(C(=O)NNc2cc(C3=NOC(c4cc(Cl)cc(Cl)c4)(C(F)(F)F)C3)ccc2Cl)cc1 (stereo not drawn) | 131 °C
11 | O=C(NNc1cc(C2=NOC(c3cc(Cl)cc(Cl)c3)(C(F)(F)F)C2)ccc1Cl)Nc1ccc([N+](=O)[O-])cc1 (stereo not drawn) | 201 °C
12 | CCC(=O)NNc1cc(C2=NOC(c3cc(Cl)cc(Cl)c3)(C(F)(F)F)C2)ccc1Cl (stereo not drawn) | 92 °C
13 | O=C(NNc1cc(C2=NOC(c3cc(Cl)cc(Cl)c3)(C(F)(F)F)C2)ccc1Cl)c1ccccc1 (stereo not drawn) | 105 °C
14 | O=C(NNc1cc(C2=NOC(c3cc(Cl)cc(Cl)c3)(C(F)(F)F)C2)ccc1Cl)c1cccnc1 (stereo not drawn) | 205 °C
15 | FC(F)(F)C1(c2cc(Cl)cc(Cl)c2)CC(c2ccc(Cl)c(NNC(=S)NC3CCCCC3)c2)=NO1 (stereo not drawn) | 126 °C
16 | CC(=O)N(C)Nc1cccc(C2=NOC(c3cc(Cl)cc(Cl)c3)(C(F)(F)F)C2)c1 (stereo not drawn) | 88 °C
17 | Cc1ccc(C2=NOC(c3cc(Cl)cc(Cl)c3)(C(F)(F)F)C2)cc1NNC(=O)OC(C)C (stereo not drawn) | 71 °C
18 | CC(=O)N(C)N(C)c1cccc(C2=NOC(c3cc(Cl)cc(Cl)c3)(C(F)(F)F)C2)c1 (stereo not drawn) | 151 °C
19 | O=C(NNc1cc(C2=NOC(c3cc(Cl)cc(Cl)c3)(C(F)(F)F)C2)ccc1Cl)C(F)(F)F (stereo not drawn) | 64 °C
20 | O=C(NN(C(=O)c1ccccc1)c1cc(C2=NOC(c3cc(Cl)cc(Cl)c3)(C(F)(F)F)C2)ccc1Cl)C1CC1 (stereo not drawn) | 172 °C
21 | O=C(NNc1cc(C2=NOC(c3cc(Cl)cc(Cl)c3)(C(F)(F)F)C2)ccc1Cl)c1ccncc1 (stereo not drawn) | 115 °C
22 | CC(=O)N(NC(=O)c1ccccc1)c1cc(C2=NOC(c3cc(Cl)cc(Cl)c3)(C(F)(F)F)C2)ccc1Cl (stereo not drawn) | 107 °C
23 | CN(C)C(=O)NNc1cc(C2=NOC(c3cc(Cl)cc(Cl)c3)(C(F)(F)F)C2)ccc1Cl (stereo not drawn) | 212 °C
24 | CC(=O)N(C)N(C(=O)OC(C)(C)C)c1cccc(C2=NOC(c3cc(Cl)cc(Cl)c3)(C(F)(F)F)C2)c1 (stereo not drawn) | 79 °C
25 | FC(F)(F)C1(c2cc(Cl)cc(Cl)c2)CC(c2ccc(Cl)c(NNC(=S)Nc3ccccc3)c2)=NO1 (stereo not drawn) | 213 °C
26 | C=CC(=O)NN(C(=O)OC(C)(C)C)c1cc(C2=NOC(c3cc(Cl)cc(Cl)c3)(C(F)(F)F)C2)ccc1Cl (stereo not drawn) | 119 °C
27 | O=C(/C=C/c1ccccc1)NNc1cc(C2=NOC(c3cc(Cl)cc(Cl)c3)(C(F)(F)F)C2)ccc1Cl (stereo not drawn) | 205 °C
28 | CC(=O)NN(C(=O)c1ccccc1)c1cc(C2=NOC(c3cc(Cl)cc(Cl)c3)(C(F)(F)F)C2)ccc1Cl (stereo not drawn) | 142 °C
29 | CC(=O)NNc1cccc(C2=NOC(c3cc(Cl)cc(Cl)c3)(C(F)(F)F)C2)c1 (stereo not drawn) | 100 °C
30 | CC(C)(C)OC(=O)N(NC(=O)C1CC1)c1cc(C2=NOC(c3cc(Cl)cc(Cl)c3)(C(F)(F)F)C2)ccc1Cl (stereo not drawn) | 180 °C
31 | O=C(NNc1cc(C2=NOC(c3cc(Cl)cc(Cl)c3)(C(F)(F)F)C2)ccc1Cl)c1ccc([N+](=O)[O-])cc1 (stereo not drawn) | 231 °C
32 | CC(=O)NNc1cc(C2=NOC(c3cc(Cl)cc(Cl)c3)(C(F)(F)F)C2)ccc1Cl (stereo not drawn) | 94 °C
33 | C=CC(=O)NNc1cc(C2=NOC(c3cc(Cl)cc(Cl)c3)(C(F)(F)F)C2)ccc1Cl (stereo not drawn) | 90 °C
34 | COCC(=O)NN(C(C)=O)c1cc(C2=NOC(c3cc(Cl)cc(Cl)c3)(C(F)(F)F)C2)ccc1Cl (stereo not drawn) | 164 °C
35 | O=C(NNc1cc(C2=NOC(c3cc(Cl)cc(Cl)c3)(C(F)(F)F)C2)ccc1Cl)Nc1ccccc1 (stereo not drawn) | 131 °C
